According to ChEMBL document CHEMBL1614631, “Comparative evaluation of oral systemic exposure of 56 xenobiotics in rat, dog, monkey and human” (Xenobiotica, 2005):

Tests used:
[1] = Dose normalised AUC in dog after po administration; settings: in vivo
[2] = Dose normalised AUC in rat after po administration; settings: in vivo
[3] = Dose normalised AUC in human after po administration; settings: in vivo
[4] = Dose normalised AUC in monkey after po administration; settings: macaca, in vivo

In the case of `CC(C)c1nc(CN(C)C(=O)N[C@H](C(=O)N[C@@H](Cc2ccccc2)C[C@H](O)[C@H](Cc2ccccc2)NC(=O)OCc2cncs2)C(C)C)cs1` [RITONAVIR], the DNAUC [1] is reported as 101.08 kg·min/L, the DNAUC [2] is reported as 41.59 kg·min/L and the DNAUC [3] is reported as 370.17 kg·min/L. It also gave a DNAUC [4] of 27.18 kg·min/L.
For `NCC1(CC(=O)O)CCCCC1` [GABAPENTIN], the DNAUC [1] was 290.4 kg·min/L, the DNAUC [2] was 87.72 kg·min/L and the DNAUC [3] was 369.82 kg·min/L. It also gave a DNAUC [4] of 156.24 kg·min/L.
Compound `COc1ccc2c(c1)c(CC(=O)O)c(C)n2C(=O)c1ccc(Cl)cc1` [INDOMETHACIN] has a DNAUC [1] of 793.3 kg·min/L, a DNAUC [2] of 2056 kg·min/L and a DNAUC [3] of 488.62 kg·min/L. It also gave a DNAUC [4] of 133.1 kg·min/L.
In the case of `CCN[C@@H](C)Cc1cccc(C(F)(F)F)c1` [DEXFENFLURAMINE], the DNAUC [1] is reported as 6.72 kg·min/L, the DNAUC [2] is reported as 7.2 kg·min/L and the DNAUC [3] is reported as 80 kg·min/L. It also gave a DNAUC [4] of 4.38 kg·min/L.
Work on `C1=C(c2ccccc2)CCN(C[C@@H]2CCC=C(c3ccccc3)C2)C1` [CI-1007] yielded a DNAUC [1] of 1.46 kg·min/L, a DNAUC [2] of 2.65 kg·min/L and a DNAUC [3] of 2.63 kg·min/L. For the same compound, the DNAUC [4] was 2.34 kg·min/L.
Work on `CN1C(C(=O)Nc2nccs2)=C(O)c2ccccc2S1(=O)=O` [SUDOXICAM] yielded a DNAUC [1] of 5554 kg·min/L, a DNAUC [2] of 4415.2 kg·min/L and a DNAUC [3] of 8161.43 kg·min/L. The DNAUC [4] was 3821.3 kg·min/L.
`COc1nccc(-c2c(-c3ccc(F)cc3)ncn2C2CCNCC2)n1` [SB-242235] showed a DNAUC [1] of 147.59 kg·min/L, a DNAUC [2] of 37.61 kg·min/L and a DNAUC [3] of 141 kg·min/L. For the same compound, the DNAUC [4] was 115.9 kg·min/L.
`CCCCN1C[C@H](O)[C@@H](O)[C@H](O)[C@H]1CO` [MIGLUSTAT] showed a DNAUC [1] of 204 kg·min/L, a DNAUC [2] of 16.6 kg·min/L and a DNAUC [3] of 358.71 kg·min/L. The DNAUC [4] was 166.88 kg·min/L.
`CS(=O)(=O)Nc1ccc(F)c([C@@H](O)CN)c1` [NS-49] showed a DNAUC [1] of 382.2 kg·min/L, a DNAUC [2] of 33.3 kg·min/L and a DNAUC [3] of 306 kg·min/L. For the same compound, the DNAUC [4] was 165.6 kg·min/L.
With `Cc1cccc(C)c1NC(=O)NCCCNC(C)C` [RECAINAM] the DNAUC [1] was 72.4 kg·min/L, the DNAUC [2] was 6.3 kg·min/L and the DNAUC [3] was 98.57 kg·min/L. The DNAUC [4] was 48 kg·min/L.
For `COC(=O)C1=C(C)NC(C)=C(C(=O)OCCN(C)Cc2ccccc2)C1c1cccc([N+](=O)[O-])c1` (stereo not drawn) [NICARDIPINE], the DNAUC [1] was 2 kg·min/L, the DNAUC [2] was 1.1 kg·min/L and the DNAUC [3] was 10 kg·min/L. For the same compound, the DNAUC [4] was 3.84 kg·min/L.
Work on `NS(=O)(=O)c1cc(C(=O)O)c(NCc2ccco2)cc1Cl` [FUROSEMIDE] yielded a DNAUC [1] of 57.84 kg·min/L, a DNAUC [2] of 44.73 kg·min/L and a DNAUC [3] of 184.62 kg·min/L. It also gave a DNAUC [4] of 43.2 kg·min/L.
